{
  "source": "patent US12622943B2",
  "about": "“Composition for relieving woman menopausal symptom comprising a mixed extract of hop and citrus peel and method for treating or alleviating menopausal symptom using the same” (LG HOUSEHOLD & HEALTH CARE LTD., priority 2022, dated 2026)",
  "origin": "cited, not measured here",
  "tested_on": "uterine weight",
  "settings": "administered to animals at high doses",
  "data": [
    {"smiles": "CC(C)=CCc1c(O)cc(O)c2c1O[C@H](c1ccc(O)cc1)CC2=O", "note": "[8-Prenylnaringenin]", "values": [
      {"measurement": "uterine weight", "value": "increased"}
    ]}
  ]
}
